Consider two compounds from patent publication US20240390581A1, “METHOD AND APPARATUS FOR A STEADY STATE INT[…] OF SEROTONERGIC DRUGS” (PSOULMED, LLC, priority 2021, published 2024).

For series [1] the following is noted: cited from earlier work.
The conditions of series [2]: higher dose, 0.4 mg/kg bolus (G-S FIG. 2A); cited from earlier work.
The nature of series [3]: Transfer rate constants of the Gallimore-Strassman two-compartment model, calculated from G-S Table 2. Also noted: species or system human. From the text:
For consistency with the G-S model, referred to here as FIG. 1 is the (prior art) model from the 2016 paper by Gallimore Strassman (prior art), where: • k10 rate of elimination from the central compartment (min^−1) • k12 transfer rate from central to peripheral compartment (min^−1) • T same as k12 • k21 transfer rate from peripheral to central compartment (min^−1) • K1e transfer rate from central compartment to effect site (min^−1) • Ke0 rate of elimination of drug from the effect site (min^−1) E same as ke0 • CT plasma concentration (mg/ml) • RT rate at which drug reaches the effect site (mg/min) • [C] DMT concentration in the central compartment (mg/ml) • [P] DMT concentration in the peripheral compartment (mg/ml) […].
It should be appreciated that the notation used in the prior art (G-S) is very different from the notation used herein in developing the models in the present disclosure. In G-S (p. 5), E is used for the elimination rate, without it being made clear if this is the elimination rate from the effect site or from the central compartment. Also, T is used interchangeably with k12 from G-S FIG. 1. The extra parameters in G-S Table 2, Vc (L), Vp (L), Km (mg/L), Vm (mg/min), Q12 (L/min) are not defined, modulo a minor footnote (bottom of p. 4) stating that:

The subject of series [4] is subject. The note with it: believed, not measured; cited from earlier work.
Series [5] has as its system infusion veins. Description: Venous response to intravenous administration of DMT. The class given is in vivo. From the text: A second, and perhaps more serious issue, with the Gallimore Strassman paper is the administration of DMT intravenously. […] This is especially true of serotonergic drugs which, as noted, can be phlebitic at the site of administration. This in combination with probable chemical irritation, even with iso-osmolar concentrations buffered to a physiologic pH (using DMT fumarate or similar salt), intravenous thrombophlebitis can occur at a rate

Series [6] has as its system humans. Particulars: cited from earlier work.
Series [7] relates to humans. Particulars: IV single bolus; cited from earlier work.
The test system of series [8] is subject. The experiment in a line: Intramuscular bolus plus infusion of DMT, subject-reported effects. The series is classed as in vivo, human. The protocol:
In intramuscular infusion, the muscle is first loaded which then diffuses into the peripheral soft tissues, the lymphatics and blood, and then the CNS. The result is a very gentle rise in effect, with the earliest effects usually noticed within the first 2 minutes, and the subject experiencing threshold effects somewhere between 5 and 15 minutes. The intensification of the experience is slow, and while there is some overshoot, it is quite manageable, and usually lasts for only minutes. The key here is turning the pump off when the ideal state is reached, or at the earliest sign of being above the ideal level and reporting when those levels have been achieved.
The same assumptions for IV infusion are made with IM infusion, a 75 kg individual who identifies smoking 25 mg of DMT as an ideal dose. A muscle should be chosen for access with the infusion needle. While any muscle will work, the most favorable option is probably the anterolateral thigh. This allows the patient to be positioned supine comfortably. If the anterolateral thigh is chosen, appropriate garments should be worn by the patient to expose the thigh in a manner that is suitable for access. […]
When the subject is ready, the bolus dose is administered over a short amount of time, preferably about 60 seconds, from time t=0 to t=1 minute. […]

The test system of series [9] is vein. Description: Additives to the intravenous DMT infusion, flow rate and venous injury. The series is classed as in vivo. The note with it: magnesium 0.1 mg/mL to 100 mg/mL in DMT infusion or maintenance line. From the text:
In this respect, the inventors addressed the following goals: • 1. […] A method for combining goals 1 and/or 2 with nitroglycerine ointment on the vein to be cannulated prior to gaining intravenous access, which improves vein patency and dilution from blood flow as well as normal saline. • 4. A method for creating an injectable form of a DMT salt such as fumarate, or freebase DMT in a solution or suspension or emulsion in an iso-osmolar or near iso-osmolar carrier such as hyaluronic acid or polyethylene glycol, as to minimize molecular interaction with the walls and endothelium of the peripheral vasculature, while maintaining water soluble or miscible properties as to not adversely affect the pharmacokinetics. • 5. A method for utilizing goal 4, with any other drug or substance that may cause venous irritation, to minimize the risk of thrombophlebitis, such as nanoparticles or crystals in suspension, or similarly, chemotherapeutic drugs, anesthetic agents and the like.

The mark [10] stands for this setting: inhaling vaporized or smoked DMT, or single IV bolus.

Molecules are shown by their SMILES.

Take `CN(C)CCc1c[nH]c2ccccc12` [DMT, N,N-dimethyltryptamine]: the biological half-life result in series [1] (in vivo) is “in the range of minutes”. In addition, the “half-life of injected DMT” value in series [1] (injected) is “about 15 minutes”. Also, the blood concentration in series [2] was 100 ng/mL. In series [3] (0.2 mg/kg), the “k12, transfer rate from central to peripheral compartment” value is 0.3286 min⁻¹ and the “k21, transfer rate from peripheral to central compartment” value was 0.2 min⁻¹. In series [3] (0.4 mg/kg), the “k12, transfer rate from central to peripheral compartment” value was 0.6021 min⁻¹ and the “k21, transfer rate from peripheral to central compartment” value is 0.1647 min⁻¹. Besides, in [4], the “CNS concentration equating to a full experience” value is “roughly 100 ng/ml” and the “CNS concentration equating to a threshold experience” value is listed as “roughly 60 ng/ml”. Besides, the “venous effects of intravenous administration” value in [5] was “causing vasoconstriction, phlebitis and eventual closing of the infusion veins”. For the same compound, in series [6] (setting [10]), the duration of experience was 10 to 15 min and the “time of peak experience” value is reported as “around 5 minutes”. Further, the “effect of oral ingestion” value in series [6] (oral ingestion, rapid metabolism by monoamine oxidase) was “virtually no effect”. Further, in [7], the “onset of psychological effects” value is “almost immediately after administration”, the “time by which psychological effects were almost completely resolved” value is no more than 30 minutes and the “time of peak psychological effects” value was 90 to 120 seconds. For the same compound, the “time to earliest drug effects” value in [8] was no more than 2 min. For the same compound, the “time for drug effects to fully abate after pump is turned off” value in series [8] (pump off) is reported as “within about an hour or less”.
For the compound `[Mg+2]` [magnesium], the “effect on venous injury” value in series [9] is reported as “decrease venous injury”.
